{"source": "paper PMC12135181", "about": "“The mechanism of lineage-specific tRNA recognition by bacterial tryptophanyl-tRNA synthetase and its implications for inhibitor discovery” (Nucleic Acids Research, 2025)", "key": {"EcTrpRS [1]": {"target": "T1, EcTrpRS (Escherichia coli, UniProt P00954)", "T1 construct": "hexahistidine tag (C); made in house; host or cells: Escherichia coli BL21(DE3)", "assay": "Pyrophosphate (PPi) production assay", "format": "biochemical", "conditions": "10 μM compound, average of three; for inhibition at 10 µM: read-out: Inhibitory rate of PPi production activity of EcTrpRS", "experimental": "The inhibitory effects of various compounds of EcTrpRS were evaluated using a pyrophosphate (PPi) production assay. EcTrpRS was incubated with 10 μM (in 0.1% DMSO) of each compound for 10 min at room temperature. […] The mixture was incubated at 26°C for 45 min, after which 40 μl of malachite green reagent was added to terminate the reaction and develop color. Following an additional incubation of 10 min, the absorbance (A) was measured at 640 nm using a Synergy H1 microplate reader (BioTek). The absorbance of the reaction without adding a compound was designated as A1, the absorbance of the reaction without adding EcTrpRS was A0, and the absorbance of the reaction with the addition of a compound was AC. The inhibitory rates of compounds on enzyme activity were calculated as (A1 − AC)/(A1 − A0) × 100%. Each reaction was performed in triplicate."}, "EcTrpRS [2]": {"target": "T1, EcTrpRS", "assay": "Isothermal titration calorimetry (ITC) to EcTrpRS", "format": "binding", "experimental": "(§1) The binding affinities of various compounds to EcTprRS were measured using a MicroCal VP-ITC microcalorimeter (MicroCal). Compounds at a concentration of 200 μM were titrated into 20 μM of EcTrpRS in PBS (phosphate buffered saline) buffer (137 mM NaCl, 2.7 mM KCl, 8 mM Na2HPO4, and 2 mM KH2PO4). The titration assays were conducted at 26°C, beginning with an initial injection of 0.4 μl, followed by 18 injections of 2 μl each, with an interval of 120 s between each injection. The dissociation constants (Kd) were calculated by fitting the calorimetric data to a one-site binding model using MicroCal PEAQ-ITC analysis software, with the reported errors in Kd values representing the curve fitting errors. All isothermal titration calorimetry (ITC) experiments were repeated at least twice, and the titrations of compounds to HcTrpRS were also performed for comparison."}, "EcTrpRS [3]": {"target": "T1, EcTrpRS", "format": "binding"}, "HcTrpRS": {"target": "T2, HcTrpRS (Homo sapiens, UniProt P23381)", "T2 construct": "made in house", "T2 sequence (P23381 1-471)": "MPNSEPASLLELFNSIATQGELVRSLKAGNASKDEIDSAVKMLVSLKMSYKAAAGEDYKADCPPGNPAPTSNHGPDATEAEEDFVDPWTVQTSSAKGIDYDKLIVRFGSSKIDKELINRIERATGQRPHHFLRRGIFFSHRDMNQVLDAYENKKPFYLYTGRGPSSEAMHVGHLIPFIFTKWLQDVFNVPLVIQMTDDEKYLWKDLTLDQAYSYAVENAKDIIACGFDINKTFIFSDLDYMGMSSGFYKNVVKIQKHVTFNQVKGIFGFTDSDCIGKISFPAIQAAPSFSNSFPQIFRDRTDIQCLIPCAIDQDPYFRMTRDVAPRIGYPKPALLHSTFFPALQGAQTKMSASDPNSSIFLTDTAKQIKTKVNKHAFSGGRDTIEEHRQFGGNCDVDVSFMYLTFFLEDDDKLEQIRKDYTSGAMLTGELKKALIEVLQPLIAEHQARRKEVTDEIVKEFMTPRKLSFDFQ", "assay": "Isothermal titration calorimetry (ITC) to HcTrpRS", "format": "binding", "experimental": "as §1"}, "[4]": {"conditions": "no tRNA, no ATP, 26°C, PBS, read-out: Kd for binding to EcTrpRS (ITC)"}}, "note": "Like-named read-outs stand apart in the source and are kept apart here."}
{"compound": "Nc1ncnc2n[nH]c(-c3ccc(Oc4ccccc4)cc3)c12", "note": "[IBT4A]", "values": [{"measurement": "Inhibitory rate of PPi production activity of EcTrpRS", "setting": "EcTrpRS [1]; 10 µM", "result": "nor did they exhibit considerable inhibitory rates"}, {"measurement": "Inhibitory rate of PPi production activity of EcTrpRS", "setting": "EcTrpRS [1]; listed as 8, 10 µM", "result": "< 5", "unit": "%"}]}
{"compound": "Nc1ncnc2c1c(-c1ccc(Oc3ccccc3)cc1)nn2[C@@H]1CCCNC1", "note": "[IBT6A]", "values": [{"measurement": "Inhibitory rate of PPi production activity of EcTrpRS", "setting": "EcTrpRS [1]; 10 µM", "result": "nor did they exhibit considerable inhibitory rates"}, {"measurement": "Inhibitory rate of PPi production activity of EcTrpRS", "setting": "EcTrpRS [1]; listed as 6, 10 µM", "result": 9, "unit": "%"}]}
{"compound": "N[C@@H](Cc1c[nH]c2ccccc12)C(=O)O", "note": "[L-Trp, tryptophan]", "values": [{"measurement": "Binding to EcTrpRS (ITC)", "setting": "EcTrpRS [2]; in the presence of 200 μM N-piperidine ibrutinib", "result": "no binding"}, {"measurement": "Kd", "setting": "EcTrpRS [2]; [4]", "result": "40200 ± 4800", "unit": "nM"}]}
{"compound": "C=CC(=O)N1CCC[C@H](n2c(=O)n(-c3ccc(Oc4ccccc4)cc3)c3c(N)ncnc32)C1", "note": "[ONO-4059 analogue]", "values": [{"measurement": "inhibition at 10 µM", "setting": "EcTrpRS [1]", "result": 38, "unit": "%"}, {"measurement": "Change of ΔTm of EcTrpRS with compound after addition of tRNA^Trp", "setting": "EcTrpRS [3]", "result": "reduced"}]}
{"compound": "Nc1ncnc2c1c(-c1ccc(Oc3ccccc3)cc1)nn2C1CCCC1", "note": "[PCI-29732]", "values": [{"measurement": "Inhibitory rate of PPi production activity of EcTrpRS", "setting": "EcTrpRS [1]; 10 µM", "result": "nor did they exhibit considerable inhibitory rates"}, {"measurement": "Inhibitory rate of PPi production activity of EcTrpRS", "setting": "EcTrpRS [1]; listed as 7, 10 µM", "result": "< 5", "unit": "%"}]}
{"compound": "C=CC(=O)N1CCC[C@@H](n2nc(-c3ccc(Oc4ccccc4)cc3)c3c(N)ncnc32)C1", "note": "[ibrutinib]", "values": [{"measurement": "Inhibitory rate of PPi production activity of EcTrpRS", "setting": "EcTrpRS [1]", "result": "nor did they exhibit considerable inhibitory rates"}, {"measurement": "inhibition at 10 µM", "setting": "EcTrpRS [1]", "result": 12, "unit": "%"}, {"measurement": "ΔTm of EcTrpRS", "setting": "EcTrpRS [3]", "result": "did not produce significant changes"}]}
{"compound": "CN=C1NC(=O)[C@H]([C@H](C)c2c[nH]c3ccccc23)O1", "note": "[indolmycin]", "values": [{"measurement": "Kd", "setting": "EcTrpRS [2]; in the absence of ATP, read-out: Kd (binding affinity) to EcTrpRS (ITC)", "result": "804 ± 54", "unit": "nM"}, {"measurement": "Kd", "setting": "EcTrpRS [2]; in the presence of 1 mM ATP, read-out: Kd (binding affinity) to EcTrpRS (ITC)", "result": "503 ± 31", "unit": "nM"}, {"measurement": "inhibition at 10 µM", "setting": "EcTrpRS [1]", "result": 93, "unit": "%"}]}
{"compound": "CC#CC(=O)N1CC[C@@H](n2c(=O)n(-c3ccc(Oc4ccccc4)cc3)c3c(N)ncnc32)C1", "note": "[tirabrutinib]", "values": [{"measurement": "Kd", "setting": "EcTrpRS [2]; [4]", "result": "4800 ± 200", "unit": "nM"}, {"measurement": "inhibition at 10 µM", "setting": "EcTrpRS [1]", "result": 50, "unit": "%"}, {"measurement": "Binding affinity for HcTrpRS (ITC)", "setting": "HcTrpRS", "result": "no binding affinities"}, {"measurement": "Change of ΔTm of EcTrpRS with compound after addition of tRNA^Trp", "setting": "EcTrpRS [3]", "result": "reduced"}]}
{"compound": "C=CC(=O)N1CCC[C@@H](n2c(=O)n(-c3ccc(Oc4ccccc4)cc3)c3c(N)nccc32)C1", "note": "[tolebrutinib]", "values": [{"measurement": "inhibition at 10 µM", "setting": "EcTrpRS [1]", "result": 19, "unit": "%"}, {"measurement": "Change of ΔTm of EcTrpRS with compound after addition of tRNA^Trp", "setting": "EcTrpRS [3]", "result": "reduced"}]}
